Results published in the supplement of paper PMC12463676, “Small-molecule dissolution of stress granules by redox modulation benefits ALS models” (Nature Chemical Biology, 2025).

Columns and labels:
lipoamide = compound: NC(=O)CCCCC1CCSS1 [lipoamide]; test: thermal stability z-score vs DMSO; higher = more thermally stabilized by treatment; details: HeLa, lipoamide concentration 100 µM
Method: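 Cellular thermal proteome profiling in HeLa cells. Cells were treated with 100 µM lipoamide for 1 h, with or without 1 mM arsenate for a further 1 h, then heated to ten temperatures (37-66.3 °C), and soluble protein was quantified by TMT mass spectrometry relative to 0.1% DMSO controls. The thermal stability score (sum of log2 fold changes minus the abundance score) was transformed to a z-score; mean of n = 3 experiments.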

potassium arsenate = compound: O=[As]([O-])(O)O.[K+] [potassium arsenate]; test: as above; details: HeLa; arsenate concentration 1 mM
Method: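 Cellular thermal proteome profiling in HeLa cells treated with 1 mM arsenate for 1 h (DMSO pretreatment), heated to ten temperatures (37-66.3 °C). Soluble protein was quantified by TMT mass spectrometry relative to DMSO controls; the thermal stability score was transformed to a z-score; mean of n = 3 experiments.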

[1] = arsenate co-treatment: 1 mM arsenate 1 h
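Further: each temperature applied for 3 min, abundance score taken as mean log2 fold change at the two lowest temperatures, z-score obtained by mean subtraction and division by SD.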

Sequence of UniProt Q8WVY7 (Q8WVY7 whole entry): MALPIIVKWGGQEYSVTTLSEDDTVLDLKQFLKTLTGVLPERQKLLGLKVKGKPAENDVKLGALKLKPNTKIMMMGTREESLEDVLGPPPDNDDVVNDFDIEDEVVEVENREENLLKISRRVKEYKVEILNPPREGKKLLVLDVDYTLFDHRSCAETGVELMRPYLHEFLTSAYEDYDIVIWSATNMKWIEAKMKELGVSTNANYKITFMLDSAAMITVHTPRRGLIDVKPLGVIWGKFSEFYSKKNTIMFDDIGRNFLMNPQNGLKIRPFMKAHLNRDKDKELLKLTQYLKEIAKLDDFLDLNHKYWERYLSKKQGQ
Sequence of UniProt Q9BZV1 (Q9BZV1 whole entry): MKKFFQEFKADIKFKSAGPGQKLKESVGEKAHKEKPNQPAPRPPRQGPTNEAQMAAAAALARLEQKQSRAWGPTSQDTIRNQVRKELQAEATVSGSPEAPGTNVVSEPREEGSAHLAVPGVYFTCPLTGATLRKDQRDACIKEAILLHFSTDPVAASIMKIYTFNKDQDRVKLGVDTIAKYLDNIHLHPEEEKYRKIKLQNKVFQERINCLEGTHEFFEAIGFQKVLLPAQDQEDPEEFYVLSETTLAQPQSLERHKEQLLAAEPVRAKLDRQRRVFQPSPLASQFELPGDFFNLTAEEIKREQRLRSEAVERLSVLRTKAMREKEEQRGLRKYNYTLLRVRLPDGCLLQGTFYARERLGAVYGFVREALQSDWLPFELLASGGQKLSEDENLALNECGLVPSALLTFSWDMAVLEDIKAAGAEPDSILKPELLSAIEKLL
Sequence of UniProt Q9C0C9 (Q9C0C9 whole entry): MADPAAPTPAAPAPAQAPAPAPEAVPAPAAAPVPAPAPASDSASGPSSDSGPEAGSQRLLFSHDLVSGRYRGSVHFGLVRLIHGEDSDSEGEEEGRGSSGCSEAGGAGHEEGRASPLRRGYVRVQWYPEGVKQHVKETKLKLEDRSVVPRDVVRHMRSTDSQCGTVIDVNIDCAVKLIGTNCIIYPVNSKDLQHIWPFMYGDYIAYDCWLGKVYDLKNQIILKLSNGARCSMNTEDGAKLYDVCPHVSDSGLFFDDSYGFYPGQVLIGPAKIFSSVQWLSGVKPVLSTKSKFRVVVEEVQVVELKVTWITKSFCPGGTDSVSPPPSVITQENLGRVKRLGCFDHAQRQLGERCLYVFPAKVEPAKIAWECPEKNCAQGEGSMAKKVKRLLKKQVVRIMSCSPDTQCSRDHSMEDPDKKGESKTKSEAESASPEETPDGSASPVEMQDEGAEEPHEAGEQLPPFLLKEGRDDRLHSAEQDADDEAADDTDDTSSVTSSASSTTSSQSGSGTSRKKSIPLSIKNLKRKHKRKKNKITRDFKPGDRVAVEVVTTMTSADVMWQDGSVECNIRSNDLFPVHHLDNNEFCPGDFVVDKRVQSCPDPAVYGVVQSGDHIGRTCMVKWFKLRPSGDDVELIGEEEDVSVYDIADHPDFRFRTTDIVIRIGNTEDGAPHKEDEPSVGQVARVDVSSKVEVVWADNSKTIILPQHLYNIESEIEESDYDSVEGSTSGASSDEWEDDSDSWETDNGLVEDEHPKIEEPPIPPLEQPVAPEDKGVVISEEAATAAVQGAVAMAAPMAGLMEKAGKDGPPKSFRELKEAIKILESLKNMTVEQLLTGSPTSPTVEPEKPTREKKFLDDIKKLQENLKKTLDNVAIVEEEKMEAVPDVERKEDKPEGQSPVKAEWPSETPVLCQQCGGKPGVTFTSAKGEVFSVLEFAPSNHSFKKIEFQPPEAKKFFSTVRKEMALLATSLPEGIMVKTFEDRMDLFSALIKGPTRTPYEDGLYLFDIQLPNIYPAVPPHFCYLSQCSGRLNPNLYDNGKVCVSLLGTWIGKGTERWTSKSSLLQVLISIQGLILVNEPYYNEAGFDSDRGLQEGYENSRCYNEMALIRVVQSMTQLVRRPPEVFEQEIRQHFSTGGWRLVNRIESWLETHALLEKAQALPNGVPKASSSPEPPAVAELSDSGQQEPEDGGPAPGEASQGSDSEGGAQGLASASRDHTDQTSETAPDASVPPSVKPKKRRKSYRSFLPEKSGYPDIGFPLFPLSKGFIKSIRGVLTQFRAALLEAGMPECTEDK
Sequence of UniProt O95071 (O95071 whole entry): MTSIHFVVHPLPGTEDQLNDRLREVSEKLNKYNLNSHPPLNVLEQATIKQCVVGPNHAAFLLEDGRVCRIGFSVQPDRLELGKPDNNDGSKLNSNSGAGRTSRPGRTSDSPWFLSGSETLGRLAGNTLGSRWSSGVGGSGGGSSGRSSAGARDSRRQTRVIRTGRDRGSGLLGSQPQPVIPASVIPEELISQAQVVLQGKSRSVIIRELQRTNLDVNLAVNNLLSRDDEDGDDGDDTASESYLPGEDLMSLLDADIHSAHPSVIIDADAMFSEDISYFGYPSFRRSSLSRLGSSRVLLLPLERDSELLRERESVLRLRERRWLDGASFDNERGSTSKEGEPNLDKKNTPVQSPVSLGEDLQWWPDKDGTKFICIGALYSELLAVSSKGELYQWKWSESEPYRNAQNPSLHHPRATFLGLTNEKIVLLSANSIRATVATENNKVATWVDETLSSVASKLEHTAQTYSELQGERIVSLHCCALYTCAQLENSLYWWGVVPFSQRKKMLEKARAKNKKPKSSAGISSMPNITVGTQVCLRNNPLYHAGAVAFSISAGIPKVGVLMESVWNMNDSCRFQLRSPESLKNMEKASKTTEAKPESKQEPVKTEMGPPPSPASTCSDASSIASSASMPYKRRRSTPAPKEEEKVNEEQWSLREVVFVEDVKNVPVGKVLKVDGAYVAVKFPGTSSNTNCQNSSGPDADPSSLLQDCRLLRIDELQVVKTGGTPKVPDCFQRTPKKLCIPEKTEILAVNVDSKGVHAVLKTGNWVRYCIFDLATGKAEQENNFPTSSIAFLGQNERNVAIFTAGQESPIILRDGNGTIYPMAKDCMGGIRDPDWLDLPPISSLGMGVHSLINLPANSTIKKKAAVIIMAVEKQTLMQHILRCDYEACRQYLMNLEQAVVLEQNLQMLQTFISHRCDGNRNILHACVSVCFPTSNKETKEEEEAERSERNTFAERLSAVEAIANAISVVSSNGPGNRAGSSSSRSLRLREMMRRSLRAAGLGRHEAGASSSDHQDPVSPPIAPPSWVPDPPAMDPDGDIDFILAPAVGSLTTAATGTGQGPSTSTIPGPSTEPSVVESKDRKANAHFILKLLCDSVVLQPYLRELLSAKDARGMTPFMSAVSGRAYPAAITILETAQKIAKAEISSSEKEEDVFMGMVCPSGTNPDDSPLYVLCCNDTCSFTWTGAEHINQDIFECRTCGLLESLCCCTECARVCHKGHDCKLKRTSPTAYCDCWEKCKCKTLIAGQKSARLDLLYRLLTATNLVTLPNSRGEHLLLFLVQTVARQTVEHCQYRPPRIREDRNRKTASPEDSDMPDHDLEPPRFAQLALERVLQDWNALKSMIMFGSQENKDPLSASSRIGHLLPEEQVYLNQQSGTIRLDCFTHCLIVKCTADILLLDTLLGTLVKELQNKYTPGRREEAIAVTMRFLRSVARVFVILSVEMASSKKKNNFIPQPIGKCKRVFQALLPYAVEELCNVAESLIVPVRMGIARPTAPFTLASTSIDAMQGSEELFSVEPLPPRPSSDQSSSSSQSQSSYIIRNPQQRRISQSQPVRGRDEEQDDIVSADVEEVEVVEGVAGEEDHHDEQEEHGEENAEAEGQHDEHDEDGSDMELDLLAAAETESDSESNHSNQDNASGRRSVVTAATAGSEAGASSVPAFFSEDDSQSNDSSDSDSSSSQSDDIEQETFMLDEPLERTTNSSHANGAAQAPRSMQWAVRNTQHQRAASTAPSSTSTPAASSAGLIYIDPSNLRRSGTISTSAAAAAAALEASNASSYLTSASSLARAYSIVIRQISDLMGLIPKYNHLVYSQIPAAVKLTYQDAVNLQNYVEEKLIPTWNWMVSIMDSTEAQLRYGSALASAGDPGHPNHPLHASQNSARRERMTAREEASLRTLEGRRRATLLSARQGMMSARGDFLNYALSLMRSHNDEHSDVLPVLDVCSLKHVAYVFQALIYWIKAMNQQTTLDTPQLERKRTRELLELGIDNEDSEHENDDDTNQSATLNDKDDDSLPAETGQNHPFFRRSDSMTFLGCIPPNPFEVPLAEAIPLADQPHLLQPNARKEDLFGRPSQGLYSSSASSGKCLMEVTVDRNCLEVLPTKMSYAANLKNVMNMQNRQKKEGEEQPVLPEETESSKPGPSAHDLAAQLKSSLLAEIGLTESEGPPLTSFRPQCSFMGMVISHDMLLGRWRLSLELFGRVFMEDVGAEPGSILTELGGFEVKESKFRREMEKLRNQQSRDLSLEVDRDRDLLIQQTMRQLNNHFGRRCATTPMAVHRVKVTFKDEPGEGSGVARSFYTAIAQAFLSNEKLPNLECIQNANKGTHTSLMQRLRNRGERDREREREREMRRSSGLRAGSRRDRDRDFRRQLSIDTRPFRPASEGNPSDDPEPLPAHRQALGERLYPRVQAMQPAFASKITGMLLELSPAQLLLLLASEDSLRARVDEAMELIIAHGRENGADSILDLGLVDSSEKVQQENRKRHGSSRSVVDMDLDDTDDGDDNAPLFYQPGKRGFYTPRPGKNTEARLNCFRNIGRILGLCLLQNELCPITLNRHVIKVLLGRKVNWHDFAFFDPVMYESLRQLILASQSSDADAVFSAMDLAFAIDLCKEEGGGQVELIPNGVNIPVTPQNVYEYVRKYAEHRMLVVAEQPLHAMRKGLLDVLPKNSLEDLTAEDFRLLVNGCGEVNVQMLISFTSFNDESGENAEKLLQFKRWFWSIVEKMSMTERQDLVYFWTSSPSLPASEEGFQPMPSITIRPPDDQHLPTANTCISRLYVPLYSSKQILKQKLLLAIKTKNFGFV
Sequence of UniProt Q9NPD8 (Q9NPD8 whole entry): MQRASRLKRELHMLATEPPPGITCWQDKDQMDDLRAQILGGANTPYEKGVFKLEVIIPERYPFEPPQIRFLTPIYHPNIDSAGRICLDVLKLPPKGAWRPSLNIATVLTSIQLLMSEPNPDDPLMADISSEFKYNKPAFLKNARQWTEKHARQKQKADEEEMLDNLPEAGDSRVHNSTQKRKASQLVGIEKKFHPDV

| Target | thermal stability z-score (lipoamide; [1]) | thermal stability z-score (lipoamide; arsenate co-treatment: none) | thermal stability z-score (potassium arsenate) |
| --- | --- | --- | --- |
| UBE2F (UniProt Q969M7) | -0.0267 | -0.0251 | -0.224 |
| UBE2G1 (UniProt P62253) | 0.288 | 0.286 | 0.0592 |
| UBE2G2 (UniProt P60604) | 0.327 | 0.813 | 0.643 |
| UBE2H (UniProt P62256) | 0.213 | -0.108 | 0.295 |
| UBE2I (UniProt P63279) | -0.334 | 0.315 | 0.137 |
| UBE2J1 (UniProt Q9Y385) | -0.909 | -0.103 | 0.198 |
| UBE2J2 (UniProt Q8N2K1) | -0.286 | -0.461 | -0.0347 |
| UBE2K (UniProt P61086) | 0.398 | -0.0311 | -0.201 |
| UBE2L3 (UniProt P68036) | 0.00366 | -0.189 | -0.555 |
| UBE2M (UniProt P61081) | 0.533 | 0.463 | -0.416 |
| UBE2N (UniProt P61088) | -0.524 | -0.293 | -0.899 |
| UBE2O (UniProt Q9C0C9) | 0.0608 | 0.277 | 0.509 |
| UBE2Q1 (UniProt Q7Z7E8) | -0.546 | -0.425 | -0.514 |
| UBE2R2 (UniProt Q712K3) | 0.8 | 0.536 | -0.279 |
| UBE2S (UniProt Q16763) | 0.862 | 0.191 | 0.161 |
| UBE2T (UniProt Q9NPD8) | 0.245 | 0.447 | -0.137 |
| UBE2V2 (UniProt Q15819) | 0.177 | -0.304 | -0.0935 |
| UBE2Z (UniProt Q9H832) | -0.25 | -0.264 | -0.55 |
| UBE3A (UniProt Q05086) | 0.245 | -0.149 | 0.3 |
| UBE3B (UniProt Q7Z3V4) | -0.0453 | -0.155 | -0.212 |
| UBE3C (UniProt Q15386) | -0.19 | 0.18 | 0.79 |
| UBE4A (UniProt Q14139) | -0.217 | -0.148 | 0.86 |
| UBE4B (UniProt O95155) | -0.444 | -0.412 | 0.599 |
| UBFD1 (UniProt O14562) | -0.0131 | -0.0151 | 0.066 |
| UBIAD1 (UniProt Q9Y5Z9) | -0.487 | -0.317 | -0.362 |
| UBL4A (UniProt P11441) | 0.683 | 1.2 | 1.11 |
| UBL5 (UniProt Q9BZL1) | -0.115 | -0.0438 | -0.107 |
| UBL7 (UniProt Q96S82) | 0.396 | 0.433 | 0.168 |

| Target | thermal stability z-score (lipoamide; [1]) | thermal stability z-score (lipoamide; arsenate co-treatment: none) | thermal stability z-score (potassium arsenate) |
| --- | --- | --- | --- |
| UBLCP1 (UniProt Q8WVY7) | 0.309 | -0.101 | 0.8 |
| UBQLN1 (UniProt Q9UMX0) | 2.04 | 2.04 | 0.778 |
| UBQLN2 (UniProt Q9UHD9) | 1.26 | 0.932 | -0.0552 |
| UBQLN4 (UniProt Q9NRR5) | 1.81 | 1.78 | 0.334 |
| UBR1 (UniProt Q8IWV7) | -0.198 | 0.193 | -0.191 |
| UBR2 (UniProt Q8IWV8) | 0.13 | 0.182 | 0.444 |
| UBR3 (UniProt Q6ZT12) | 0.0839 | 0.139 | -0.007 |
| UBR4 (UniProt Q5T4S7) | -0.162 | -0.16 | 0.242 |
| UBR5 (UniProt O95071) | -0.165 | -0.0498 | 1.13 |
| UBR7 (UniProt Q8N806) | -0.392 | -0.575 | 0.457 |
| UBTF (UniProt P17480) | 0.142 | 0.184 | 0.532 |
| UBXN1 (UniProt Q04323) | 0.155 | 0.25 | -0.0349 |
| UBXN4 (UniProt Q92575) | -0.125 | -0.121 | -0.265 |
| UBXN6 (UniProt Q9BZV1) | -0.186 | -0.134 | -0.12 |
| UBXN7 (UniProt O94888) | -0.462 | 0.55 | -0.679 |
| UBXN8 (UniProt O00124) | -1.43 | -0.528 | -0.0404 |
| UCHL3 (UniProt P15374) | 0.844 | 0.126 | -0.0572 |
| UCHL5 (UniProt Q9Y5K5) | 0.0058 | 0.138 | 0.855 |
| UCK1 (UniProt Q9HA47) | -0.206 | -0.165 | 0.121 |
| UCK2 (UniProt Q9BZX2) | -0.0152 | 0.141 | 0.093 |
| UCKL1 (UniProt Q9NWZ5) | -0.158 | -0.483 | 0.0426 |
| UEVLD (UniProt Q8IX04) | 0.183 | 0.107 | 0.0354 |
| UFC1 (UniProt Q9Y3C8) | 0.984 | 0.773 | 0.281 |
| UFD1L (UniProt Q92890) | -0.427 | -0.0782 | 0.36 |
| UFL1 (UniProt O94874) | -0.791 | -0.41 | 0.145 |
| UFM1 (UniProt P61960) | 0.193 | 0.534 | 0.181 |
| UFSP2 (UniProt Q9NUQ7) | -1.19 | -0.381 | 0.0966 |
